Results from patent US20130065818A1, “Arylamide Compounds And Compositions And Uses Thereof” (POLYMEDIX, priority 2006, published 2013).
≈ marks a conversion by molar mass, not a printed value. Read-outs that look alike come from different tables or passages of the source.

Experiments:
[1] = test system: Staphylococcus aureus fluoroquinolone-resistant; assay: MIC, 25 ocular isolates, broth microdilution (Example 8); type: cell-based
Description: (§1) • Mueller-Hinton Broth in tubes was inoculated with 25 ocular isolates of Staphylococcus aureus fluoroquinolone-susceptible, Staphylococcus aureus fluoroquinolone-resistant, Staphylococcus epidermidis (Coagulase-negative Staphylococcus) fluoroquinolone-susceptible, Staphylococcus epidermidis (Coagulase-negative Staphylococcus) fluoroquinolone-resistant, Pseudomonas aeruginosa and Serratia marcescens, plus two controls (Staphylococcus aureus and E. coli) and incubated at 37° C. overnight on a shaker set at 250 rpm.
(§2) On the day of testing, a 640 μg/ml (1280 μg/ml for Serratia marcescens and Pseudomonas aeruginosa) concentration was prepared from a 1% stock solution in 0.01% acetic acid, 0.2% BSA in polypropylene tubes.
(§3) Serial doubling dilutions in 0.01% acetic acid, 0.2% BSA in 96 well polypropylene plates, which are used as reservoirs for the inoculation of the test plates, were carried out to obtain serial dilutions of test agents at 10 times the required test concentrations: 640, 320, 160, 80, 40, 20, 10, 5, 2.5, 1.25, and 0.625 μg/ml (1280, 640, 320, 160, 80, 40, 20, 10, 5, 2.5, and 1.25 μg/ml for Serratia marcescens and Pseudomonas aeruginosa).
(§4) Ten μl of diluted 10×test agents was added to each well of one row of the 96 well polypropylene plates from column 2 to column 12 (column 1 is a control for bacteria alone, with no peptide). Test agent concentrations in columns 2-12 were as follows: 64, 32, 16, 8, 4, 2, 1, 0.5, 0.25, 0.125, and 0.0625 μg/ml (128, 64, 32, 16, 8, 4, 2, 1, 0.5, 0.25, and 0.125 μg/ml for Serratia marcescens and Pseudomonas aeruginosa). The same peptide was in each of the 8 rows. One plate contained dilutions of one test agent and 8 bacterial isolates.
(§5) On the day of testing, the overnight bacterial broth cultures of Staphylococcus aureus fluoroquinolone-susceptible, Staphylococcus aureus fluoroquinolone-resistant, Staphylococcus epidermidis (Coagulase-negative Staphylococcus) fluoroquinolone-susceptible, Staphylococcus epidermidis (Coagulase-negative Staphylococcus) fluoroquinolone-resistant, Serratia marcescens, and Pseudomonas aeruginosa, plus two controls (Staphylococcus aureus and E. coli) were diluted in 5 ml of trypticase soy broth to yield turbidity equal to a 0.5 McFarland standard. The final inoculum for MIC testing for Staphylococcus aureus fluoroquinolone-susceptible, Staphylococcus aureus fluoroquinolone-resistant, Staphylococcus epidermidis (Coagulase-negative Staphylococcus) fluoroquinolone-susceptible, Staphylococcus epidermidis (Coagulase-negative Staphylococcus) fluoroquinolone-resistant, Serratia marcescens, and Pseudomonas aeruginosa was achieved by placing 0.05 ml of the turbidity adjusted sample to 5 ml of Mueller-Hinton broth.
(§6) Ninety μl of the bacterial suspensions was dispensed in each well from column 1 to column 12. Each bacterial isolate was placed in one row of a 96 well polypropylene plate containing the test agents. The plates were placed on shaker at 15 minutes at room temperature, and then incubated at 37° C. overnight. MICs were determined visually as the lowest concentration of drug that inhibits visible bacterial growth.

Serratia marcescens = assay: as above; type: cell-based
Description: as §1, §2, §3, §4, §5, §6

SMILES: N=C(N)NCCCCC(=O)Nc1cc(C(F)(F)F)cc(NC(=O)c2cnc(C(=O)Nc3cc(C(F)(F)F)cc(NC(=O)CCCCNC(=N)N)c3SCCN)cn2)c1SCCN [Oligomer 5]
- MIC50 ([1]; 25 isolates, Row 13): 0.25 µg/mL (≈ 0.273 µM)
- MIC90 ([1]; 25 isolates, Row 22): 0.5 µg/mL (≈ 0.545 µM)
- Range of MICs ([1]; 25 isolates, Summary of Results): 0.125 to 0.5 µg/mL
- MIC ([1]; Staphylococcus aureus, 25 ocular isolates, read-out: Median MIC): ≤ 0.25 µg/mL
- MIC ([1]; Staphylococcus aureus, isolate 1—E504, read-out: MIC): 0.5 µg/mL (≈ 0.545 µM)
- MIC ([1]; Staphylococcus aureus, isolate 2—E475, read-out: MIC): 0.25 µg/mL (≈ 0.273 µM)
- MIC ([1]; Staphylococcus aureus, isolate 3—E442, read-out: MIC): 0.25 µg/mL (≈ 0.273 µM)
- MIC ([1]; Staphylococcus aureus, isolate 4—E427, read-out: MIC): 0.5 µg/mL (≈ 0.545 µM)
- MIC ([1]; Staphylococcus aureus, isolate 5—E425, read-out: MIC): 0.25 µg/mL (≈ 0.273 µM)
- MIC ([1]; Staphylococcus aureus, isolate 6—E424, read-out: MIC): 0.25 µg/mL (≈ 0.273 µM)
- MIC ([1]; Staphylococcus aureus, isolate 7—E417, read-out: MIC): 0.25 µg/mL (≈ 0.273 µM)
- MIC ([1]; Staphylococcus aureus, isolate 8—E407, read-out: MIC): 0.125 µg/mL (≈ 0.136 µM)
- MIC ([1]; Staphylococcus aureus, isolate 9—E401, read-out: MIC): 0.25 µg/mL (≈ 0.273 µM)
- MIC ([1]; Staphylococcus aureus, isolate 10—K1659, read-out: MIC): 0.25 µg/mL (≈ 0.273 µM)
- MIC ([1]; Staphylococcus aureus, isolate 11—E96, read-out: MIC): 0.25 µg/mL (≈ 0.273 µM)
- MIC ([1]; Staphylococcus aureus, isolate 12—E379, read-out: MIC): 0.5 µg/mL (≈ 0.545 µM)
- MIC ([1]; Staphylococcus aureus, isolate 13—E369, read-out: MIC): 0.5 µg/mL (≈ 0.545 µM)
- MIC ([1]; Staphylococcus aureus, isolate 14—E361, read-out: MIC): 0.25 µg/mL (≈ 0.273 µM)
- MIC ([1]; Staphylococcus aureus, isolate 15—E339, read-out: MIC): 0.25 µg/mL (≈ 0.273 µM)
- MIC ([1]; Staphylococcus aureus, isolate 16—E333, read-out: MIC): 0.125 µg/mL (≈ 0.136 µM)
- MIC ([1]; Staphylococcus aureus, isolate 17—E332, read-out: MIC): 0.25 µg/mL (≈ 0.273 µM)
- MIC ([1]; Staphylococcus aureus, isolate 18—E327, read-out: MIC): 0.25 µg/mL (≈ 0.273 µM)
- MIC ([1]; Staphylococcus aureus, isolate 19—E325, read-out: MIC): 0.25 µg/mL (≈ 0.273 µM)
- MIC ([1]; Staphylococcus aureus, isolate 20—K950, read-out: MIC): 0.25 µg/mL (≈ 0.273 µM)
- MIC ([1]; Staphylococcus aureus, isolate 21—K839, read-out: MIC): 0.25 µg/mL (≈ 0.273 µM)
- MIC ([1]; Staphylococcus aureus, isolate 22—K1679, read-out: MIC): 0.25 µg/mL (≈ 0.273 µM)
- MIC ([1]; Staphylococcus aureus, isolate 23—K1677, read-out: MIC): 0.5 µg/mL (≈ 0.545 µM)
- MIC ([1]; Staphylococcus aureus, isolate 24—K1672, read-out: MIC): 0.25 µg/mL (≈ 0.273 µM)
- MIC ([1]; Staphylococcus aureus, isolate 25—K1670, read-out: MIC): 0.25 µg/mL (≈ 0.273 µM)
- MIC ([1]; Staphylococcus aureus, n=25 per group, read-out: Median MIC): 0.25 µg/mL (≈ 0.273 µM)
- MIC50 ([1]; Staphylococcus aureus, 25 isolates, Summary of Results, read-out: MIC50): 0.25 µg/mL (≈ 0.273 µM)
- MIC90 ([1]; Staphylococcus aureus, 25 isolates, Summary of Results, read-out: MIC90): 0.5 µg/mL (≈ 0.545 µM)
- MIC ([1]; Staphylococcus aureus, 25 isolates, Summary of Results, read-out: Median MIC): 0.25 µg/mL (≈ 0.273 µM)
- MIC50 ([1]; n=25 per group): 0.25 µg/mL (≈ 0.273 µM)
- MIC90 ([1]; n=25 per group): 0.5 µg/mL (≈ 0.545 µM)
- Range of MICs ([1]; n=25 per group): 0.125 to 0.5 µg/mL
- MIC50 (Serratia marcescens; 25 isolates, Row 13, >128 was Replaced with 256): 256 µg/mL (≈ 279 µM)
- MIC90 (Serratia marcescens; 25 isolates, Row 22, >128 was Replaced with 256): 256 µg/mL (≈ 279 µM)
- Range of MICs (Serratia marcescens; 25 isolates, Summary of Results, >128 was Replaced with 256): 8 to 256 µg/mL
- MIC (Serratia marcescens; Serratia marcescens, 25 ocular isolates, read-out: Median MIC): 128 µg/mL (≈ 140 µM)
- MIC (Serratia marcescens; Serratia marcescens, isolate 1—K1681, read-out: MIC): > 128 µg/mL
- MIC (Serratia marcescens; Serratia marcescens, isolate 2—K1674, read-out: MIC): > 128 µg/mL
- MIC (Serratia marcescens; Serratia marcescens, isolate 3—K1558, read-out: MIC): > 128 µg/mL
- MIC (Serratia marcescens; Serratia marcescens, isolate 4—K1538, read-out: MIC): > 128 µg/mL
- MIC (Serratia marcescens; Serratia marcescens, isolate 5—K1503, read-out: MIC): > 128 µg/mL
- MIC (Serratia marcescens; Serratia marcescens, isolate 6—K1216, read-out: MIC): > 128 µg/mL
- MIC (Serratia marcescens; Serratia marcescens, isolate 7—K1496, read-out: MIC): > 128 µg/mL
- MIC (Serratia marcescens; Serratia marcescens, isolate 8—K1481, read-out: MIC): > 128 µg/mL
- MIC (Serratia marcescens; Serratia marcescens, isolate 9—K1470, read-out: MIC): > 128 µg/mL
- MIC (Serratia marcescens; Serratia marcescens, isolate 10—K1468, read-out: MIC): > 128 µg/mL
- MIC (Serratia marcescens; Serratia marcescens, isolate 11—K1467, read-out: MIC): > 128 µg/mL
- MIC (Serratia marcescens; Serratia marcescens, isolate 12—K1462, read-out: MIC): > 128 µg/mL
- MIC (Serratia marcescens; Serratia marcescens, isolate 13—K1461, read-out: MIC): 128 µg/mL (≈ 140 µM)
- MIC (Serratia marcescens; Serratia marcescens, isolate 14—K1413, read-out: MIC): > 128 µg/mL
- MIC (Serratia marcescens; Serratia marcescens, isolate 15—K1402, read-out: MIC): 8 µg/mL (≈ 8.72 µM)
- MIC (Serratia marcescens; Serratia marcescens, isolate 16—K1357, read-out: MIC): > 128 µg/mL
- MIC (Serratia marcescens; Serratia marcescens, isolate 17—K1351, read-out: MIC): 64 µg/mL (≈ 69.8 µM)
- MIC (Serratia marcescens; Serratia marcescens, isolate 18—K1327, read-out: MIC): > 128 µg/mL
- MIC (Serratia marcescens; Serratia marcescens, isolate 19—K1321, read-out: MIC): > 128 µg/mL
- MIC (Serratia marcescens; Serratia marcescens, isolate 20—K1315, read-out: MIC): > 128 µg/mL
- MIC (Serratia marcescens; Serratia marcescens, isolate 21—K1306, read-out: MIC): > 128 µg/mL
- MIC (Serratia marcescens; Serratia marcescens, isolate 22—K1290, read-out: MIC): > 128 µg/mL
- MIC (Serratia marcescens; Serratia marcescens, isolate 23—K1265, read-out: MIC): > 128 µg/mL
- MIC (Serratia marcescens; Serratia marcescens, isolate 24—K1263, read-out: MIC): > 128 µg/mL
- MIC (Serratia marcescens; Serratia marcescens, isolate 25—K1239, read-out: MIC): > 128 µg/mL
- MIC (Serratia marcescens; Serratia marcescens, n=25 per group, read-out: Median MIC): 256 µg/mL (≈ 279 µM)
- MIC50 (Serratia marcescens; Serratia marcescens, 25 isolates, Summary of Results, >128 was Replaced with 256, read-out: MIC50): 256 µg/mL (≈ 279 µM)
- MIC90 (Serratia marcescens; Serratia marcescens, 25 isolates, Summary of Results, >128 was Replaced with 256, read-out: MIC90): 256 µg/mL (≈ 279 µM)
- MIC (Serratia marcescens; Serratia marcescens, 25 isolates, Summary of Results, >128 was Replaced with 256, read-out: Median MIC): 256 µg/mL (≈ 279 µM)
- MIC50 (Serratia marcescens; n=25 per group): 256 µg/mL (≈ 279 µM)
- MIC90 (Serratia marcescens; n=25 per group): 256 µg/mL (≈ 279 µM)
- Range of MICs (Serratia marcescens; n=25 per group): 8 to 256 µg/mL
